According to patent EP4574175A1, “PRODRUG FOR ANTI-AGING RELATED DISEASES AND USE METHOD THEREFOR” (BEIJING SUNCELL BIO-MEDICAL CO., LTD., priority 2022, dated 2024):

Assays:
[1] = test system: non-senescent A549 cells; test: Cell killing activity assay (CCK-8), Example 7; assay type: cell-based, human; details: 25 µM
Protocol: (§1) Preparation of the cell plates: The non-senescent, and the induced senescent HEF cells and A549 cells were taken respectively, digested with trypsin, and centrifuged at 1000 rmp for 5 minutes. The supernatants were removed, and the cells were resuspended in fresh DMEM medium containing 10% foetal bovine serum for counting. The cell density was adjusted so that the density of the non-senescent cells was at 4000 cells/100 µL and the density of the senescent cells was at 7000 cells/100 µL. The cell suspension was added to the 96-well transparent cell culture plates at 100 µL per well. Note that the edge wells of the 96-well plate were not used for the test wells, and 300 µL PBS is added separately to reduce the medium evaporation. The cell-spread 96-well plates were put back into the incubator at 37°C for the overnight incubation until the cells adhered to the wall.
(§2) Formulation of the drug concentration gradients: After the cells adhered to the wall on the second day, the small molecule compounds (d-12, d-11, and d-4) to be tested for activity are ready to be added. […] 3 parallel replicate wells were set up for each test drug concentration. The 96-well plate was put back into the incubator at 37°C, and the cell survival was tested after three days.
(§3) Detection of the cell survival after the drug treatment using the CCK-8 method: Three days after the addition of the drug, the well plate was removed, the supernatant was discarded, and 100 µL of the pre-prepared CCK-8 working solution was added to each well. The CCK-8 working solution was obtained by diluting the CCK8 stock solution (C0041, Beyotime) with the serum-free DMEM medium in 10-fold volume. The 96-well plate added with the CCK-8 working solution was put back to the incubator at 37°C and incubated for 0.5-2 hours. The plate was taken out to determine the absorbance value (OD value) of each well at the wavelength of 450 nm. The cell viability in each experimental group was calculated. The following formula was used: the relative cell viability (%) = […] x 100 %.

[2] = test system: non-senescent HEF cells; test: Cell killing activity assay (CCK-8), Example 7; assay type: cell-based, human; details: 25 µM
Protocol: as §1, §2, §3

[3] = test system: senescent A549 cells; test: Cell killing activity assay (CCK-8), Example 7; assay type: cell-based, human; details: three days; for selective killing of the senescent cells: A549-induced senescence cell model, up to 25 µM
Protocol: as §1, §2, §3

[4] = test system: senescent HEF cells; test: Cell killing activity assay (CCK-8), Example 7; assay type: cell-based, human; details: HEF-induced senescence cell model, up to 25 µM, three days
Protocol: as §1, §2, §3

[5] = test system: induced senescent A549 cell; test: In vitro compound screening, cell viability test (CCK-8); assay type: cell-based, human; details: for senescent cell killing activity and selectivity in vitro (screening): induced senescent A549 cell model, Figure 1A; for killing activity on the senescent cells compared with ABT-263: A549-CDDP, Figure 1B
[6] = test system: induced senescent HEF cell; test: as above; assay type: cell-based, human; details: HEF-ETO, Figure 1C
Protocol: Briefly, the human embryonic skin tissues and the fetal lung tissues obtained from the aborted tissues with the patient's informed consent were minced with the forcep and incubated in 1 mg/ml collagenase IV at 37°C for 1-2 hours. After the enzyme treatment, the cells were collected by centrifugation and resuspended in HEF medium (Dulbecco's modified Eagle medium (DMEM, Gibco) containing 10% fetal bovine serum (FBS, Ausbian), 1% GlutaMAX (Gibco), 1% non-essential amino acids (NEAA, Gibco) and 1% penicillin/streptomycin (Gibco). Gibco). Cells were plated on the 10 cm tissue culture dishes and grown in 10% FBS DMEM. […] They were passaged and cryopreserved according to Lonza's method. A549 cells, BJ cells and MRC5 cells were purchased from ATCC and cultured in DMEM medium containing 10% fetal bovine serum (FBS, Ausbian), and 1% penicillin/streptomycin (Gibco).
Cell Counting Kit-8 (CCK-8) assay was used to assess the cell viability. The senescent and non-senescent cells or chondrocytes were seeded into the 96-well plates and cultured overnight. The cells were then treated with control (0.05% DMSO) or different concentrations of the drug to be tested. […] Absorbance was measured at the wavelength of 450 nm.

[7] = test system: platelets; test: In vivo platelet toxicity test; set-up: species or system C57 mice; details: multiple rounds i.p.
Protocol: (§4) All drugs were mixed in 85% physiological saline, 5% DMSO (Sigma, D8418) and 10% Solutol HS 15 (Sigma, 42966), and administered to mice by intraperitoneal (i.p.) injection. To treat the bleomycin-injured young mice, A13 (2 mg/kg), A13bGa1 (5 mg/kg), or an empty vehicle control was administered three consecutive days per week for four weeks. A1331852 (abbreviated as A13) was purchased from MCE.
(§5) A single administration of A13 or A13bG was performed. Female 5-6 week old C57 mice were treated with a single intraperitoneal injection. A13 and A13bG were administered in three different dose groups of 2, 5, and 20 mg/kg. Approximately 50 µl of blood was collected from each mouse at different time points into the EDTA tubes (RAM Scientific) by means of inner canthal blood extraction, and analyzed using a haematology analyzer for a blood routine examination and a platelet counting. Multiple administrations of A13 or A13bG were performed. Female 5-6 week old C57 mice were treated with multiple intraperitoneal injections. A13 and A13bG were administered in three different dose groups of 2, 5 and 20 mg/kg, three consecutive days per week, followed by a 4-day withdrawal for 3 weeks. The time points of administration were in the afternoon of days 0, 1, 2, 7, 8, 9, 14, 15, and 16, and the time points of blood collection and testing were in the morning of days 1, 3, 5, 8, 10, 12, 15, 17, and 19, respectively.
For a blood routine examination, 50 µl of fresh blood was collected from each mouse and immediately mixed with EDTA. Blood samples were analyzed by Celltac Alpha MEK-6400 series haematology analyzer (Nihon Kohden, MEK-6400). Data were expressed as the number of different blood cells or platelets per µl of blood. For the serum biochemical analysis, the blood samples were collected, coagulated for 2 hours at room temperature or overnight at 4°C, and then centrifuged (1000 g, 10 minutes) to obtain serum. A 200 µl of serum was aliquoted and analyzed for alanine aminotransferase (ALT), aspartate aminotransferase (AST), uric acid (UA), and creatinine (CREA) by a chemistry analyzer (Mindray, BS-350E).

[8] = Daily observation of mice during multiple administration; assay type: in vivo, C57 mice; details: after 3 consecutive rounds of administration
Protocol: as §5

[9] = test system: mouse model of Bleomycin-induced pulmonary fibrosis; test: Bleomycin-induced pulmonary fibrosis mouse model; assay type: in vivo, C57 mice; details: A13 2 mg/kg
Protocol: as §4
Bleomycin was purchased from Selleck. […]. Drug treatment was initiated four days after modelling, and the drug was administered three consecutive days per week for four consecutive weeks, after which the mice were executed for material collection.
All animals (including those found dead, dying, and euthanised) were autopsied, and the lung tissues were preserved. The lungs were separated, the fat and other tissues were removed, the surface fluid was absorbed using a filter paper, and the whole lungs were weighed (those found dead, dying, and euthanised) for calculation of the lung weight index. The right lung and bronchiole were fixed in 10% neutral buffered formalin solution, embedded in paraffin, sectioned, prepared into slices, and stained with HE for a histopathological and morphological observation of the lung. The degree of the lesions such as the inflammatory cell infiltration in the lung tissue were graded according to a 4-grade classification (slight, mild, moderate, severe) using a standard terminology for diagnosis and classification. The left lung tissue was clipped and stored temporarily below -60°C. Lung weight index(%) = lung weight/body weight × 100%. [formula]
Masson trichrome stain kit (Solarbio, G1340) was used to detect fibrosis in the lung tissue. The formalin-fixed, and paraffin-embedded lung sections were dewaxed with xylene, and then rehydrated with 100% alcohol, 95% alcohol and distilled water. The sections were then stained according to the manufacturer's instructions. Afterwards, the sections were rapidly dehydrated with 95% alcohol and 100% alcohol, cleaned with xylene and covered with the coverslips. […]

[10] = lung HE, number of animals of 6, A13bGa1 5 mg/kg
[11] = number of animals of 6, A13bGa1 5 mg/kg

CC(=O)OC[C@H]1O[C@@H](Oc2ccc(C(Cc3cn(CCCN4CCOCC4)nn3)OC(=O)c3nc(N4CCc5cccc(C(=O)Nc6nc7ccccc7s6)c5C4)ccc3-c3cnn(CC45CC6CC(CC(C6)C4)C5)c3C)cc2[N+](=O)[O-])[C@H](OC(C)=O)[C@@H](OC(C)=O)[C@H]1OC(C)=O (stereo partly drawn) [d-11]
killing of the non-senescent cells at the highest concentration [1]: none of the three molecules killed the non-senescent cells | killing of the non-senescent cells at the highest concentration [2]: none of the three molecules killed the non-senescent cells | selective killing of the senescent cells [3]: selective killing of the senescent cells | selective killing of the senescent cells [4]: selective killing of the senescent cells

Cc1sc2c(c1C)C(c1ccc(Cl)cc1)=N[C@@H](CC(=O)NCCCCCCCCNC(=O)COc1cccc3c1C(=O)N(C1CCC(=O)NC1=O)C3=O)c1nnc(C)n1-2 (stereo partly drawn) [dBET6]
senescent cell killing activity and selectivity in vitro (screening) [5]: better in vitro killing activity

Cc1ncsc1-c1ccc(CNC(=O)[C@@H]2C[C@@H](O)CN2C(=O)[C@@H](NC(=O)COCCOCCOCCNC(=O)C[C@@H]2N=C(c3ccc(Cl)cc3)c3c(sc(C)c3C)-n3c(C)nnc32)C(C)(C)C)cc1 [MZ1]
senescent cell killing activity and selectivity in vitro (screening) [5]: better in vitro killing activity

CN(C)CC#Cc1ccc(OCCCc2sc(N3CCc4cccc(C(=O)Nc5nc6ccccc6s5)c4C3)nc2C(=O)O)c(F)c1 [A1155463]
killing activity on the senescent cells compared with ABT-263 [5]: higher than that of the classical small molecule inhibitor ABT-263 | senescent cell killing activity and selectivity in vitro (screening) [5]: good senescent cell killing activity and selectivity in vitro | killing activity on the senescent cells compared with ABT-263 [6]: higher than that of the classical small molecule inhibitor ABT-263

Cc1c(-c2ccc(N3CCc4cccc(C(=O)Nc5nc6ccccc6s5)c4C3)nc2C(=O)O)cnn1CC12CC3CC(CC(C3)C1)C2 [A13, 3-[1-(adamantan-1-ylmethyl)-5-methylpyrazol-4-yl]-6-{8-[(1,3-benzothiazol-2-yl)carbamoyl]-3,4-dihydro-1H-isoquinolin-2-yl}pyridine-2-carboxylic acid]
killing activity on the senescent cells compared with ABT-263 [5]: higher than that of the classical small molecule inhibitor ABT-263 | senescent cell killing activity and selectivity in vitro (screening) [5]: good senescent cell killing activity and selectivity in vitro | killing activity on the senescent cells compared with ABT-263 [6]: higher than that of the classical small molecule inhibitor ABT-263 | toxic effects on the platelets ([7]; 3 consecutive days per week for 3 weeks, 2 mg/kg): very serious toxic effects on the platelets | toxic effects on the platelets ([7]; 3 consecutive days per week for 3 weeks, 2, 5 and 20 mg/kg): strong destructive effects on the platelets | mice depilated, dispirited and in poor state ([8]; 5 mg/kg i.p.): 2/4 | mice depilated, dispirited and in poor state ([8]; 20 mg/kg i.p.): 2/4 | pathological manifestations of the pulmonary fibrosis (Masson staining) ([9]; A13bGa1 5 mg/kg i.p.): not improved | lung index ([9]; A13bGa1 5 mg/kg i.p., 3 consecutive days per week for 4 weeks): no improvement | inflammation and consolidation of the mouse lungs (pathological sections) ([9]; A13bGa1 5 mg/kg i.p., HE staining): no improvement was observed | Bleeding, alveolar/interstitial: mild (++) [9, 10]: 2 | Bleeding, alveolar/interstitial: moderate (+++) [9, 10]: 0 | Bleeding, alveolar/interstitial: negative (-) [9, 10]: 2 | Bleeding, alveolar/interstitial: slight (+) [9, 10]: 2 | Exudative oedema, alveolar: mild (++) [9, 10]: 1 | Exudative oedema, alveolar: moderate (+++) [9, 10]: 1 | Exudative oedema, alveolar: negative (-) [9, 10]: 0 | Exudative oedema, alveolar: severe (++++) [9, 10]: 3 | Exudative oedema, alveolar: slight (+) [9, 10]: 1 | The infiltration of the inflammatory cells: mild (++) [9, 10]: 2 | The infiltration of the inflammatory cells: moderate (+++) [9, 10]: 1 | The infiltration of the inflammatory cells: negative (-) [9, 10]: 1 | The infiltration of the inflammatory cells: slight (+) [9, 10]: 2 | Thickening and consolidation of the pulmonary septum: mild (++) [9, 10]: 2 | Thickening and consolidation of the pulmonary septum: moderate (+++) [9, 10]: 1 | Thickening and consolidation of the pulmonary septum: negative (-) [9, 10]: 0 | Thickening and consolidation of the pulmonary septum: severe (++++) [9, 10]: 2 | Thickening and consolidation of the pulmonary septum: slight (+) [9, 10]: 1 | degree of fibrosis in the lungs using Masson staining: Moderately strong positive (+++) [9, 11]: 1 | degree of fibrosis in the lungs using Masson staining: extremely strong positive (++++) [9, 11]: 2 | degree of fibrosis in the lungs using Masson staining: moderately positive (++) [9, 11]: 1 | degree of fibrosis in the lungs using Masson staining: not positive (-) [9, 11]: 0 | degree of fibrosis in the lungs using Masson staining: weakly positive (+) [9, 11]: 2

Cc1sc2c(c1C)C(c1ccc(Cl)cc1)=N[C@@H](CC(=O)Nc1ccc(OCCOCCOCCOCCNc3cccc4c3C(=O)N(C3CCC(=O)NC3=O)C4=O)cc1)c1nnc(C)n1-2 (stereo partly drawn) [ARV825]
senescent cell killing activity and selectivity in vitro (screening) [5]: better in vitro killing activity

Cc1c(-c2ccc(N3CCc4cccc(C(=O)Nc5nc6ccccc6s5)c4C3)nc2C(=O)OC(Cc2cn(CCCN3CCOCC3)nn2)c2ccc(O[C@@H]3O[C@H](CO)[C@H](O)[C@H](O)[C@H]3O)c([N+](=O)[O-])c2)cnn1CC12CC3CC(CC(C3)C1)C2 (stereo partly drawn) [d-12]
killing of the non-senescent cells at the highest concentration [1]: none of the three molecules killed the non-senescent cells | killing of the non-senescent cells at the highest concentration [2]: none of the three molecules killed the non-senescent cells | selective killing of the senescent cells [3]: selective killing of the senescent cells | IC50 ([3]; Cisplatin-induced senescent A549 cells, CCK-8): ~6.9 µM | selective killing of the senescent cells [4]: selective killing of the senescent cells
